{"source": "ChEMBL document CHEMBL3351747", "about": "“Structure-based design of β1i or β5i specific inhibitors of human immunoproteasomes” (J Med Chem, 2014)", "key": {"[1]": {"biological_target": "T1, Proteasome subunit beta type-9 (Homo sapiens, UniProt P28065)", "T1 sequence (P28065 whole entry)": "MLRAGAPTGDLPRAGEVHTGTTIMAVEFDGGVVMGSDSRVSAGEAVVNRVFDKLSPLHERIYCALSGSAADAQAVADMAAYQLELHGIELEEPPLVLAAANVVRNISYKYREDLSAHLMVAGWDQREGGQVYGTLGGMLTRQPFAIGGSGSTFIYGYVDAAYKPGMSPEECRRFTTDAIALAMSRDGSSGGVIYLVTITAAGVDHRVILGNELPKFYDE", "assay": "Inhibition of proteasome subunit beta-1i in human Raji cells using BODIPY- epoxomicin by fluorescent densitometry", "type": "cell-based"}, "[2]": {"assay": "Inhibition of proteasome subunit beta-2c/i in human RPMI8226 cells by fluorescent densitometry", "type": "cell-based", "conditions": "rpmi-8226"}, "[3]": {"assay": "Inhibition of 20s proteasome subunit beta-1c in human RPMI8226 cells using BODIPY-NC001 by fluorescent densitometry", "type": "cell-based", "conditions": "rpmi-8226"}, "[4]": {"assay": "Inhibition of 20s proteasome subunit beta-1c in human Raji cells using BODIPY- epoxomicin by fluorescent densitometry", "type": "cell-based"}, "[5]": {"assay": "Inhibition of proteasome subunit beta-5c/i in human RPMI8226 cells by fluorescent densitometry", "type": "cell-based", "conditions": "rpmi-8226"}, "RPMI-8226 [6]": {"test_system": "RPMI-8226", "assay": "Ratio of IC50 for proteasome subunit beta-1i to IC50 for proteasome subunit beta-5c/I in human RPMI8226 cells", "type": "cell-based"}, "Raji": {"test_system": "Raji", "assay": "Ratio of IC50 for 20s proteasome subunit beta-1c to IC50 for proteasome subunit beta-1i in human Raji cells", "type": "cell-based"}, "[7]": {"biological_target": "T1, Proteasome subunit beta type-9", "assay": "Inhibition of proteasome subunit beta-1i in human RPMI8226 cells using BODIPY-NC001 by fluorescent densitometry", "type": "cell-based, RPMI-8226"}, "RPMI-8226 [8]": {"test_system": "RPMI-8226", "assay": "Ratio of IC50 for 20s proteasome subunit beta-1c to IC50 for proteasome subunit beta-1i in human RPMI8226 cells", "type": "cell-based"}, "[9]": {"biological_target": "T2, Proteasome subunit beta type-10 (Homo sapiens, UniProt P40306)", "T2 sequence (P40306 whole entry)": "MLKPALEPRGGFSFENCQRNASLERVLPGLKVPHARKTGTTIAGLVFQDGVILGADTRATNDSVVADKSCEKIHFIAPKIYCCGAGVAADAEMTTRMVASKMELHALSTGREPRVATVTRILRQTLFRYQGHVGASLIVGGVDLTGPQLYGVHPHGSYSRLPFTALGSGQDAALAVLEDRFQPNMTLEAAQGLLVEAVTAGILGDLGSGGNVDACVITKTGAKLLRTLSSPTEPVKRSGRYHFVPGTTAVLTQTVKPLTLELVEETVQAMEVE", "assay": "Inhibition of proteasome subunit beta-2i in human Raji cells using BODIPY- epoxomicin by fluorescent densitometry", "type": "cell-based"}, "[10]": {"biological_target": "T3, Proteasome subunit beta type-8 (Homo sapiens, UniProt P28062)", "T3 sequence (P28062 whole entry)": "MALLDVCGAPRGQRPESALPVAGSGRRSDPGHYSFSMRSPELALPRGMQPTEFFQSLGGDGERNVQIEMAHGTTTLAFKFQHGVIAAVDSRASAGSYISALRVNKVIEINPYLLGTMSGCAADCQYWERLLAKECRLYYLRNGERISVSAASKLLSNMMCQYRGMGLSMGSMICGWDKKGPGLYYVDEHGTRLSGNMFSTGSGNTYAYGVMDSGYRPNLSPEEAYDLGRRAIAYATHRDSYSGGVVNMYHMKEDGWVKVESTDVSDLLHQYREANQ", "assay": "Inhibition of proteasome subunit beta-5i in human RPMI8226 cells using BODIPY-NC005 by fluorescent densitometry", "type": "cell-based, RPMI-8226"}, "[11]": {"assay": "Inhibition of 20s proteasome subunit beta-5c in human Raji cells using BODIPY-NC005 by fluorescent densitometry", "type": "cell-based"}, "[12]": {"assay": "Inhibition of 20s proteasome subunit beta-5c in human RPMI8226 cells using BODIPY-NC005 by fluorescent densitometry", "type": "cell-based", "conditions": "rpmi-8226"}, "[13]": {"assay": "Inhibition of 20s proteasome subunit beta-2c in human Raji cells using BODIPY- epoxomicin by fluorescent densitometry", "type": "cell-based"}, "[14]": {"biological_target": "T3, Proteasome subunit beta type-8", "assay": "Inhibition of proteasome subunit beta-5i in human Raji cells using BODIPY-NC005 by fluorescent densitometry", "type": "cell-based"}, "[15]": {"assay": "Inhibition of 20s proteasome subunit beta-2c in human RPMI8226 cells using BODIPY-epoxomicin by fluorescent densitometry", "type": "cell-based", "conditions": "rpmi-8226"}, "[16]": {"biological_target": "T2, Proteasome subunit beta type-10", "assay": "Inhibition of proteasome subunit beta-2i in human RPMI8226 cells using BODIPY-epoxomicin by fluorescent densitometry", "type": "cell-based, RPMI-8226"}}, "note": "pIC50: −log10 of the molar value."}
{"smiles": "CCCC[C@H](NC(=O)[C@@H]1CCCN1C(=O)[C@H](C)NC(=O)CN=[N+]=[N-])C(=O)N[C@@H](CC(C)C)C(=O)[C@@]1(C)CO1", "values": [{"measurement": "pIC50", "setting": "[1]", "result": 7.35}, {"measurement": "pIC50", "setting": "[2]", "result": "< 5.00"}, {"measurement": "pIC50", "setting": "[3]", "result": 6.43}, {"measurement": "pIC50", "setting": "[4]", "result": 7.06}, {"measurement": "pIC50", "setting": "[5]", "result": "< 5.00"}, {"measurement": "Ratio IC50", "setting": "RPMI-8226 [6]", "result": "> 70"}, {"measurement": "Ratio IC50", "setting": "Raji", "result": 2}, {"measurement": "pIC50", "setting": "[7]", "result": 6.85}, {"measurement": "Ratio IC50", "setting": "RPMI-8226 [8]", "result": 3}]}
{"smiles": "CCCC[C@H](NC(=O)[C@@H]1CC(F)(F)CN1C(=O)[C@H](C)NC(=O)CN=[N+]=[N-])C(=O)N[C@@H](CC1CCCCC1)C(=O)[C@@]1(C)CO1", "values": [{"measurement": "pIC50", "setting": "[1]", "result": 7.02}, {"measurement": "pIC50", "setting": "[2]", "result": "< 4.00"}, {"measurement": "pIC50", "setting": "[3]", "result": 4.33}, {"measurement": "pIC50", "setting": "[4]", "result": 4.62}, {"measurement": "pIC50", "setting": "[5]", "result": 4.19}, {"measurement": "Ratio IC50", "setting": "RPMI-8226 [6]", "result": 500}, {"measurement": "pIC50", "setting": "[9]", "result": "< 4.00"}, {"measurement": "Ratio IC50", "setting": "Raji", "result": 252}, {"measurement": "pIC50", "setting": "[7]", "result": 6.89}, {"measurement": "Ratio IC50", "setting": "RPMI-8226 [8]", "result": 360}]}
{"smiles": "CC1=C(C(=O)N[C@H](C)C(=O)N[C@@H](Cc2c[nH]c3ccccc23)C(=O)N[C@@H](Cc2ccccc2)C(=O)[C@@]2(C)CO2)Cc2ccccc21", "values": [{"measurement": "pIC50", "setting": "[10]", "result": 7.60}, {"measurement": "pIC50", "setting": "[1]", "result": 5.74}, {"measurement": "pIC50", "setting": "[3]", "result": "< 4.00"}, {"measurement": "pIC50", "setting": "[4]", "result": "< 5.00"}, {"measurement": "pIC50", "setting": "[11]", "result": 6.64}, {"measurement": "pIC50", "setting": "[9]", "result": "< 5.00"}, {"measurement": "pIC50", "setting": "[12]", "result": 5.54}, {"measurement": "pIC50", "setting": "[7]", "result": 5.46}, {"measurement": "pIC50", "setting": "[13]", "result": "< 5.00"}, {"measurement": "pIC50", "setting": "[14]", "result": 8.60}, {"measurement": "pIC50", "setting": "[15]", "result": "< 4.00"}, {"measurement": "pIC50", "setting": "[16]", "result": "< 4.00"}]}
{"smiles": "COc1ccc(C[C@H](NC(=O)[C@@H](C)NC(=O)C2=C(C)c3ccccc3C2)C(=O)N[C@@H](CC2CCCCC2)C(=O)[C@@]2(C)CO2)cc1", "values": [{"measurement": "pIC50", "setting": "[10]", "result": 6.43}, {"measurement": "pIC50", "setting": "[1]", "result": "< 5.00"}, {"measurement": "pIC50", "setting": "[3]", "result": "< 4.00"}, {"measurement": "pIC50", "setting": "[4]", "result": "< 5.00"}, {"measurement": "pIC50", "setting": "[11]", "result": 5.26}, {"measurement": "pIC50", "setting": "[9]", "result": "< 5.00"}, {"measurement": "pIC50", "setting": "[12]", "result": "< 4.00"}, {"measurement": "pIC50", "setting": "[7]", "result": "< 4.00"}, {"measurement": "pIC50", "setting": "[13]", "result": "< 5.00"}, {"measurement": "pIC50", "setting": "[14]", "result": 7.96}, {"measurement": "pIC50", "setting": "[15]", "result": "< 4.00"}, {"measurement": "pIC50", "setting": "[16]", "result": "< 4.00"}]}
